Assay results from patent US20120295935A1, “MIXED AMINAL PHARMACEUTICAL COMPOSITIONS AND USES THEREOF” (priority 2010, published 2012).

What was measured:
[1] = test system: rat brain; details: intra-cerebroventricular or intra-peritoneal administration; cited from earlier work
[2] = test system: female SD rats; assay: Rat femur healing of surgical wounds (micro CT); type: in vivo; parameters: wound size decreased vs control / reduction in wound size / cortical thickness increased vs control: concentration or dose not given beside the values; details: for cortical thickness / cortical thickness increased vs control: femur anterior hole; for cortical thickness increase: femur posterior hole; for reduction in wound size: femur posterior holes
Protocol: Rat femur—healing of surgical wounds. A surgical hole with ˜2.0 mm in diameter was generated in the left and right femurs of twenty female SD rats (˜8 weeks, body weight ˜180 g). The holes were drilled through the femur from the anterior surface to the opposite cortex (posterior surface) in the middle of the femur. During the first 5 days, 100 μl of salubrinal solution at dosage of 0.025 mg/kg was injected subcutaneously to the left limb and a PBS solution (vehicle control) in the right limb. The injection site was closed to the anterior surgical hole. Rats were sacrificed on days 10 or 20 after surgery, and the axial and transverse hole sizes as well as cortical thickness (1.5 mm proximal and distal to the center of the hole) were determined with micro CT. […] Regarding the anterior holes, the size of the wounds 10 days after surgery was smaller in the salubrinal treated group by 10.8% (1.905±0.018 mm in control and 1.700±0.021 mm in salubrinal; p<0.001). The size in 20 day samples was further decreased by 18.0% (1.812±0.017 mm in control and 1.486±0.026 mm in salubrinal; p<0.001). […] Note that the reduction in the wound size on day 20 was more significant than those on day 10 in both the anterior and posterior holes (both p<0.001) (FIG. 15B).

[3] = test system: MC3T3 cells; assay: mRNA expression levels by real-time PCR; type: cell-based, mouse
Protocol: Responses to Administration of Thapsigargin—Upregulation of transcription factors linked to bone formation as well as PERK: The effects of 10 nM thapsigargin on mRNA expression levels of ISR-linked genes (ATF4, ATF3, and CHOP) as well as genes involved in bone remodeling (Runx2, Osterix, and Rank1), were examined (FIG. 5). […] Out of 4 transcription factors (ATF4, ATF3, Runx2, and Osterix), the level of ATF4 mRNA was elevated 2-4 fold throughout the treatments. […] The mRNA level of type 1 collagen was elevated 5 h and 10 h for T1h (1 h exposure at 10 nM).
(§1) Responses to Administration of Salubrinal—In vitro responses to salubrinal: In order to evaluate the effects of salubrinal, MC3T3 E1 osteoblast-like cells and MLO-A5 osteocyte cells (Barragan-Adjemian, C., et al., “Mechanism by which MLO-A5 late osteoblasts/early osteocytes mineralize in culture: similarities with mineralization of lamellar bone,” Calcif. Tissue Int. 79:340-353 (2006)) were incubated with salubrinal at 100 nM-50 μM for 1-24 h. The mRNA levels of the selected genes, TF4, ATF3, Osteocalcin (OCN), and CHOP, were determined by real-time PCR. […] In MC3T3 cells, for instance, the Osteocalcin mRNA level, which is regulated by ATF4 and Runx2 (Xiao et al. 2005), was elevated 11.8±0.2 fold at 10 μM salubrinal in 24 h.

[4] = test system: rat pheochromocytoma cell line; details: cited from earlier work
[5] = test system: eIF2α-p (phosphorylated form of eukaryotic initiation factor 2—subunit α); assay: Western analysis of eIF2α-p in response to salubrinal; type: cell-based, mouse; details: 10 μM or 50 μM, 1 to 5 h and 1 to 2 days
Text: MS3T3 osteoblast-like cells were used to evaluate the level of eIF2α-p (phosphorylated form of eukaryotic initiation factor 2—subunit α) in response to salubrinal.

[6] = test system: MLO-A5 osteocyte cells; assay: mRNA levels by real-time PCR in osteocyte cells; type: cell-based; details: 100 nM-50 μM for 1-24 h
Protocol: as §1

[7] = test system: female SD rats; assay: Rat tibia healing of surgical wounds (micro CT); type: in vivo; details: for cortical thickness / cortical thickness elevated vs control: tibia
Text: Rat tibia-healing of surgical wounds. Twenty female SD rats (˜8 weeks, body weight ˜180 g) received a surgical hole with ˜2.0 mm in diameter in the left and right tibiae (Zhang P., et al., Knee loading accelerates bone healing in mice, J. Bone Miner. Res. 22:1979-1987 (2007)). The hole was located on the medial surface ˜15 mm distant apart from the proximal end of the tibia (Chiba S., et al., Molecular analysis of defect healing in rat diaphyseal bone, J. Vet. Med. Sci. 63:603-606 (2001)). During the first 5 days, 100 μl of salubrinal solution at dosage of 0.025 mg/kg was injected into the left limb and a PBS solution (vehicle control) in the right limb (Wang J W, et al., Locally applied simvastatin promotes fracture healing in ovariectomized rat, Osteoporosis Int. 18:1641-1650 (2007)). Injection was subcutaneous targeted to the wound site. Rats were sacrificed on days 10 or 20 after surgery, and the axial and transverse length of the holes as well as cortical thickness (1.5 mm proximal and distal to the center of the hole) were determined with micro CT imaging (μCT-20, Scanco Medical AG).

Structure (SMILES): O=C(/C=C/c1ccccc1)NC(NC(=S)Nc1cccc2cccnc12)C(Cl)(Cl)Cl (centres unmarked) [salubrinal]
- excitotoxic neuronal death in vivo [1]: decreased
- cortical thickness ([2]; day 10): 0.476±0.012 mm
- cortical thickness increased vs control ([2]; day 10): 11.0%
- cortical thickness ([2]; day 20): 0.551±0.014 mm
- cortical thickness increased vs control ([2]; day 20): 25.7%
- size of the wounds ([2]; femur anterior holes, 10 days): 1.700±0.021 mm
- wound size smaller vs control ([2]; femur anterior holes, 10 days, 0.025 mg/kg s.c. first 5 days): 10.8%
- size of the wounds ([2]; femur anterior holes, 20 days): 1.486±0.026 mm
- wound size decreased vs control ([2]; femur anterior holes, 20 days): 18.0%
- cortical thickness increase ([2]; postoperative 10 days): 13.8%
- cortical thickness increase ([2]; postoperative 20 days): 21.3%
- reduction in wound size ([2]; postoperative 10 days): 4.1%
- reduction in wound size ([2]; postoperative 20 days): 11.1%
- Osteocalcin mRNA level ([3]; 10 μM in 24 h): 11.8±0.2 fold
- mRNA levels of the selected genes (TF4, ATF3, Osteocalcin, CHOP) ([3]; MC3T3 cells, 100 nM-50 μM for 1-24 h): upregulated
- protection from ER stress-induced apoptosis [4]: protect
- phosphorylated level of eIF2α [5]: Elevated
- mRNA levels of the selected genes [6]: did not show any significant alterations
- size of the wounds ([7]; tibia medial cortex, day 10): 1.614±0.014 mm
- wound size smaller vs control ([7]; tibia medial cortex, day 10, 0.025 mg/kg s.c. first 5 days): 12.3%
- size of the wounds ([7]; tibia medial cortex, day 20): 1.375±0.033 mm
- wound size decreased vs control ([7]; tibia medial cortex, day 20): 19.1%
- cortical thickness ([7]; day 10): 0.434±0.006 mm
- cortical thickness elevated vs control ([7]; day 10): 11.6%
- cortical thickness ([7]; day 20): 0.537±0.005 mm
- cortical thickness elevated vs control ([7]; day 20): 20.3%
